Data as given in patent publication EP4745137A1 (Gluetacs Therapeutics (Shanghai) Co., Ltd., priority 2023, dated 2025).

How the values were obtained:
Assay type in all cases: cell-based
Conditions in all cases: 24 hours of compound treatment, 50 nM and 500 nM tested (concentration behind the class not stated)
CK1α = molecular target: T1, CK1α (Homo sapiens, UniProt P48729+Q96SW2); assay: Western-blot assay of substrate protein degradation in hPBMCs, CK1α
T1 construct: endogenous in cells; host or cells: hPBMCs (Milecell Biotechnologies)
T1 sequence (P48729 whole entry): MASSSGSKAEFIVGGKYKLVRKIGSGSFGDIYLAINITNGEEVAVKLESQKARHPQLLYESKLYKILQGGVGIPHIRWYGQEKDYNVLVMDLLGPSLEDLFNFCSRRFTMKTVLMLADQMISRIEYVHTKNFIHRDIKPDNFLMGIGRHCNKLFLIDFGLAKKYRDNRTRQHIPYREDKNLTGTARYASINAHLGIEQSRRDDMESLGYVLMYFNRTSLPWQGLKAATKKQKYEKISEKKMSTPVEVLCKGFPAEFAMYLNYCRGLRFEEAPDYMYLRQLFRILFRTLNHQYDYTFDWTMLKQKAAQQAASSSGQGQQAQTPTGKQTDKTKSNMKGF
T1 sequence (Q96SW2 whole entry): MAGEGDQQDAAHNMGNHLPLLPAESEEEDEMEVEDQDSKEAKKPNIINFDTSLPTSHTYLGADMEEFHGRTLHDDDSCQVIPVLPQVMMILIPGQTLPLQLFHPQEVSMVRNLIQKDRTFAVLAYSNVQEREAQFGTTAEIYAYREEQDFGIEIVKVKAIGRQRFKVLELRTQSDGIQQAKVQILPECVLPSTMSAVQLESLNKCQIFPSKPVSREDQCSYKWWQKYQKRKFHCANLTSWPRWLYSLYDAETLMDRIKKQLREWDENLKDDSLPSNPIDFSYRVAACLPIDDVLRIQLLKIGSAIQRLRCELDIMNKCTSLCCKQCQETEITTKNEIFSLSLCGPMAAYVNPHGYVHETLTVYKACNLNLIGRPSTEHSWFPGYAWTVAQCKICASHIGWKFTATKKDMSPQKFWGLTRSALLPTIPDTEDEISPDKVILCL
T1 sequence (Q16531 whole entry partner): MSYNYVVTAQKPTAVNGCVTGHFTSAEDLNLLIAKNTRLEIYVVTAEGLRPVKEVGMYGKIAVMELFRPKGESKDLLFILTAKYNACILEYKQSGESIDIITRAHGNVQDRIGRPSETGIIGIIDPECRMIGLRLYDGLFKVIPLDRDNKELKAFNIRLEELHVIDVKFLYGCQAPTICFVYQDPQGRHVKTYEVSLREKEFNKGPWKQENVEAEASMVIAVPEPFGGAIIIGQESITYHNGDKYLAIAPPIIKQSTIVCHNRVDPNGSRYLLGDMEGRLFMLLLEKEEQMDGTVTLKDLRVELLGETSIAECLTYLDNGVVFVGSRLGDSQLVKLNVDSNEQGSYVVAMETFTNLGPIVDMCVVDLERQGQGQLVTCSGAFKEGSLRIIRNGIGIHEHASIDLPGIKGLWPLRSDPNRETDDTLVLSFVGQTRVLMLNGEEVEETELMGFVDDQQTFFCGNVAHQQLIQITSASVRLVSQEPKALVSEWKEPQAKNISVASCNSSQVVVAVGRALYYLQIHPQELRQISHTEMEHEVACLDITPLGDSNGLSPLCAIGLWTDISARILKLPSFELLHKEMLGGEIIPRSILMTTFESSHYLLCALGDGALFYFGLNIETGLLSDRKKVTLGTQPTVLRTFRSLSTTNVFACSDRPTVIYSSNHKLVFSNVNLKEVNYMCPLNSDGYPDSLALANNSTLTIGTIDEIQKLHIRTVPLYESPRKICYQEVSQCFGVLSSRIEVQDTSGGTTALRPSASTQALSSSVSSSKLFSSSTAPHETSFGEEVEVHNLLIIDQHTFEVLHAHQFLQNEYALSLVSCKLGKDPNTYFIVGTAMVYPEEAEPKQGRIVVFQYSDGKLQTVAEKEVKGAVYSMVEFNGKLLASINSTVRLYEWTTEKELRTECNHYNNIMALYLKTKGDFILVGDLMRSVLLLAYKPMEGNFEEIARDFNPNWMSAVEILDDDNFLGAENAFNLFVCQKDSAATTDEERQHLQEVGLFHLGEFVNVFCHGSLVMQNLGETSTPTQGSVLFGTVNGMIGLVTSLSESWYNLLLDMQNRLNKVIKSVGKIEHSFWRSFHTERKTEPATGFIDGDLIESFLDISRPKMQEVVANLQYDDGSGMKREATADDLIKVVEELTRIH

GSPT1 = molecular target: T2, GSPT1 (Homo sapiens, UniProt P15170+Q96SW2); assay: Western-blot assay of substrate protein degradation in hPBMCs, GSPT1
T2 construct: endogenous in cells; host or cells: hPBMCs (Milecell Biotechnologies)

IKZF3 = molecular target: T3, IKZF3 (Homo sapiens, UniProt Q96SW2+Q9UKT9); assay: Western-blot assay of substrate protein degradation in hPBMCs, IKZF3
T3 construct: endogenous in cells; host or cells: hPBMCs (Milecell Biotechnologies)
T3 sequence (Q9UKT9 whole entry): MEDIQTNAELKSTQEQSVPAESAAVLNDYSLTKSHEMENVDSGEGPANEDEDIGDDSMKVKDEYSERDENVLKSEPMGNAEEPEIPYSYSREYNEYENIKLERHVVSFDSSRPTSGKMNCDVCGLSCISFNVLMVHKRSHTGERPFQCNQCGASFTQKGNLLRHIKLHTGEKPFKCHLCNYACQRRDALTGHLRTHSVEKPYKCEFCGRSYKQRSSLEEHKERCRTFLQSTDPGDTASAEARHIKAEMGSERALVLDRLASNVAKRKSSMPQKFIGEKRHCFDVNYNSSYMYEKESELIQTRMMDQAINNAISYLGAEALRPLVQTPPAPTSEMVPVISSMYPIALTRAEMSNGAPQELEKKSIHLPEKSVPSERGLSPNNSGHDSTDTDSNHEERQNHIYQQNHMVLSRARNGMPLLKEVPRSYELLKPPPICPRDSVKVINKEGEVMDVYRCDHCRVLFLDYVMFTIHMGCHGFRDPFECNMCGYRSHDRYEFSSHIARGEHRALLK
T3 sequence (Q96SW2 whole entry): as the sequence (Q96SW2 whole entry) above
T3 sequence (Q16531 whole entry partner): as the sequence (Q16531 whole entry partner) above

IKZF2 = molecular target: T4, IKZF2 (Homo sapiens, UniProt Q96SW2+Q9UKS7); assay: Western-blot assay of substrate protein degradation in hPBMCs, IKZF2
T4 construct: endogenous in cells; host or cells: hPBMCs (Milecell Biotechnologies)
T4 sequence (Q9UKS7 whole entry): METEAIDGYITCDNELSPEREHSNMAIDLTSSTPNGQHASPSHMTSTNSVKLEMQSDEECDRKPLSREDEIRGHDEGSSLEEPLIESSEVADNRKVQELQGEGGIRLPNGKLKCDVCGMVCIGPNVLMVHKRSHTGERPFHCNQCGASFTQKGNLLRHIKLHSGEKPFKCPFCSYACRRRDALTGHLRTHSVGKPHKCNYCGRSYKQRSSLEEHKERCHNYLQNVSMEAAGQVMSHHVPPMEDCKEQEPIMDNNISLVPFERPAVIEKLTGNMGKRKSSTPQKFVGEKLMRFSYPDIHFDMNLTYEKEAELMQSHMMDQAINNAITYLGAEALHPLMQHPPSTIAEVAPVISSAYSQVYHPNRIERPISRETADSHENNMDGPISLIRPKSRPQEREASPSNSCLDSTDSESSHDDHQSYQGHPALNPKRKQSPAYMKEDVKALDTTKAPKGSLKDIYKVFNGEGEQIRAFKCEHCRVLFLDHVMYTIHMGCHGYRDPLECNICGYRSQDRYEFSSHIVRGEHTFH
T4 sequence (Q96SW2 whole entry): as the sequence (Q96SW2 whole entry) above
T4 sequence (Q16531 whole entry partner): as the sequence (Q16531 whole entry partner) above

WEE1 = molecular target: T5, WEE1 (Homo sapiens, UniProt P30291+Q96SW2); assay: Western-blot assay of substrate protein degradation in hPBMCs, WEE1
T5 construct: endogenous in cells; host or cells: hPBMCs (Milecell Biotechnologies)
T5 sequence (P30291 whole entry): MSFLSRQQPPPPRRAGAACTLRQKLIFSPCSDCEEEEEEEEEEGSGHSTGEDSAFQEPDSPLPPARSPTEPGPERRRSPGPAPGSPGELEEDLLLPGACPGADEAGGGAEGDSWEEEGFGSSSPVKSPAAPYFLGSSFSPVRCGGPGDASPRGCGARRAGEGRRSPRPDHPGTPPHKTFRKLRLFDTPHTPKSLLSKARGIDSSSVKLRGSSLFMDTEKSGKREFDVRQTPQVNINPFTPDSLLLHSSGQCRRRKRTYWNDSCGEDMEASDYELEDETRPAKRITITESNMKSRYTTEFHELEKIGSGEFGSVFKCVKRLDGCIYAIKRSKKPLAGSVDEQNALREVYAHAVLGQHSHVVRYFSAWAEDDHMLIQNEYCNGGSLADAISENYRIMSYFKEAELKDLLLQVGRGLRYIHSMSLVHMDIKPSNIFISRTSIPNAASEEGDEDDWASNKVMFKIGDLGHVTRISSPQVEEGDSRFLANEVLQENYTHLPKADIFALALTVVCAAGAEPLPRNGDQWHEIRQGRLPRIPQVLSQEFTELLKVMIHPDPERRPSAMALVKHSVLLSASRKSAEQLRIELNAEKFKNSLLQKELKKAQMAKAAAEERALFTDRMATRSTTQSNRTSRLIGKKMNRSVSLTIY
T5 sequence (Q96SW2 whole entry): as the sequence (Q96SW2 whole entry) above
T5 sequence (Q16531 whole entry partner): as the sequence (Q16531 whole entry partner) above

IKZF1 = molecular target: T6, IKZF1 (Homo sapiens, UniProt Q13422+Q96SW2); assay: Western-blot assay of substrate protein degradation in hPBMCs, IKZF1
T6 construct: endogenous in cells; host or cells: hPBMCs (Milecell Biotechnologies)
T6 sequence (Q13422 whole entry): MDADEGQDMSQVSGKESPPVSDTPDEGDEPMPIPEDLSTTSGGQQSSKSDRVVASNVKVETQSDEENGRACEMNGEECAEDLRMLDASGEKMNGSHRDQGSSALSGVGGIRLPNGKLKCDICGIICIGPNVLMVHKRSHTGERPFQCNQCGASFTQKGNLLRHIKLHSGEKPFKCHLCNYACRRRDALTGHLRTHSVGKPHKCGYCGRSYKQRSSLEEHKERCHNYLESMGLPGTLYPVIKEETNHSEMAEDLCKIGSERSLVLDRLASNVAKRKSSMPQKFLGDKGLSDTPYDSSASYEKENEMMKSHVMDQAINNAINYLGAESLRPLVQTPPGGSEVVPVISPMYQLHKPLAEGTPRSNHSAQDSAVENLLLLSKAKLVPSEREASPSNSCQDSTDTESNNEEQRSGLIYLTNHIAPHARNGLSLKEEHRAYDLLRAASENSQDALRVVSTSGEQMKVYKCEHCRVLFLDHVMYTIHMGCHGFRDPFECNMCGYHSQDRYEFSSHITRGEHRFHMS
T6 sequence (Q96SW2 whole entry): as the sequence (Q96SW2 whole entry) above
T6 sequence (Q16531 whole entry partner): as the sequence (Q16531 whole entry partner) above

Row | Compound | CK1a substrate protein remaining % (CK1α) | GSPT1 substrate protein remaining % (GSPT1) | IKZF3 substrate protein remaining % (IKZF3) | IKZF2 substrate protein remaining % (IKZF2) | Weel substrate protein remaining % (WEE1) | IKZF 1 substrate protein remaining % (IKZF1)
1 | Cc1nc(C2CCN(Cc3ccc4c(c3)C(=O)N(C3CCC(=O)NC3=O)C4=O)CC2)c2ccsc2n1 (stereo not drawn) [GT-06647, 2-(2,6-dioxopiperidin-3-yl)-5-((4-(2-methylthieno[2,3-d]pyrimidin-4-yl)piperidin-1-yl)methyl)isoindoline-1,3-dione] | A (0% ≤ substrate protein remaining % ≤ 80%) | A (0% ≤ substrate protein remaining % ≤ 80%) | B (80%< substrate protein remaining %≤ 100%) | A (0% ≤ substrate protein remaining % ≤ 80%) | A (0% ≤ substrate protein remaining % ≤ 80%) | B (80%< substrate protein remaining %≤ 100%)
2 | Cc1nc(C2CCN(Cc3ccc4c(c3)C(=O)N(C3CCC(=O)NC3=O)C4=O)CC2)c2c3c(sc2n1)CCCC3 (stereo not drawn) [GT-06648, 2-(2,6-dioxopiperidin-3-yl)-5-((4-(2-methyl-5,6,7,8-tetrahydrobenzo[4,5]thieno[2,3-d]pyrimidin-4-yl)piperidin-1-yl)methyl)isoindoline-1,3-dione] | A (0% ≤ substrate protein remaining % ≤ 80%) | A (0% ≤ substrate protein remaining % ≤ 80%) | B (80%< substrate protein remaining %≤ 100%) | A (0% ≤ substrate protein remaining % ≤ 80%) | A (0% ≤ substrate protein remaining % ≤ 80%) | B (80%< substrate protein remaining %≤ 100%)
3 | Cc1csc2ncnc(C3=CCN(Cc4ccc5c(c4)C(=O)N(C4CCC(=O)NC4=O)C5=O)CC3)c12 (stereo not drawn) [GT-06654, 2-(2,6-dioxopiperidin-3-yl)-5-((4-(5-methylthieno[2,3-d]pyrimidin-4-yl)-3,6-dihydropyridin-1(2H)-yl)methyl)isoindoline-1,3-dione] | B (80%< substrate protein remaining %≤ 100%) | A (0% ≤ substrate protein remaining % ≤ 80%) | B (80%< substrate protein remaining %≤ 100%) | B (80%< substrate protein remaining %≤ 100%) | A (0% ≤ substrate protein remaining % ≤ 80%) | B (80%< substrate protein remaining %≤ 100%)
4 | O=C1CCC(N2C(=O)c3ccc(CN4C5CC4CN(c4cccc(Cl)c4Cl)C5)cc3C2=O)C(=O)N1 (stereo not drawn) [GT-06688, 5-((3-(2,3-dichlorophenyl)-3,6-diazabicyclo[3.1.1]heptan-6-yl)methyl)-2-(2,6-dioxopiperidin-3-yl)isoindoline-1,3-dione] | B (80%< substrate protein remaining %≤ 100%) | A (0% ≤ substrate protein remaining % ≤ 80%) | B (80%< substrate protein remaining %≤ 100%) | B (80%< substrate protein remaining %≤ 100%) | B (80%< substrate protein remaining %≤ 100%) | B (80%< substrate protein remaining %≤ 100%)
5 | O=C1CCC(N2C(=O)c3ccc(CN4C[C@H]5C[C@@H]4CN5c4cccc(Cl)c4Cl)cc3C2=O)C(=O)N1 (stereo partly drawn) [GT-06690, 5-(((1R,4R)-5-(2,3-dichlorophenyl)-2,5-diazabicyclo[2.2.1]heptan-2-yl)methyl)-2-(2,6-dioxopiperidin-3-yl)isoindoline-1,3-dione] | B (80%< substrate protein remaining %≤ 100%) | A (0% ≤ substrate protein remaining % ≤ 80%) | A (0% ≤ substrate protein remaining % ≤ 80%) | B (80%< substrate protein remaining %≤ 100%) | B (80%< substrate protein remaining %≤ 100%) | B (80%< substrate protein remaining %≤ 100%)
6 | O=C1CCC(N2C(=O)c3ccc(CN4C[C@@H]5C[C@H]4CN5c4cccc(Cl)c4Cl)cc3C2=O)C(=O)N1 (stereo partly drawn) [GT-06691, 5-(((1S,4S)-5-(2,3-dichlorophenyl)-2,5-diazabicyclo[2.2.1]heptan-2-yl)methyl)-2-(2,6-dioxopiperidin-3-yl)isoindoline-1,3-dione] | B (80%< substrate protein remaining %≤ 100%) | A (0% ≤ substrate protein remaining % ≤ 80%) | B (80%< substrate protein remaining %≤ 100%) | A (0% ≤ substrate protein remaining % ≤ 80%) | A (0% ≤ substrate protein remaining % ≤ 80%) | B (80%< substrate protein remaining %≤ 100%)
7 | O=C1CCC(N2C(=O)c3ccc(CN4CC5CCC4CN5c4cccc(Cl)c4Cl)cc3C2=O)C(=O)N1 (stereo not drawn) [GT-06692, 5-((5-(2,3-dichlorophenyl)-2,5-diazabicyclo[2.2.2]octan-2-yl)methyl)-2-(2,6-dioxopiperidin-3-yl)isoindoline-1,3-dione] | B (80%< substrate protein remaining %≤ 100%) | A (0% ≤ substrate protein remaining % ≤ 80%) | B (80%< substrate protein remaining %≤ 100%) | A (0% ≤ substrate protein remaining % ≤ 80%) | A (0% ≤ substrate protein remaining % ≤ 80%) | B (80%< substrate protein remaining %≤ 100%)
8 | O=C1CCC(N2C(=O)c3ccc(CN4CC5CCC(C4)N5c4cccc(Cl)c4Cl)cc3C2=O)C(=O)N1 (stereo not drawn) [GT-06693, 5-((8-(2,3-dichlorophenyl)-3,8-diazabicyclo[3.2.1]octan-3-yl)methyl)-2-(2,6-dioxopiperidin-3-yl)isoindoline-1,3-dione] | B (80%< substrate protein remaining %≤ 100%) | A (0% ≤ substrate protein remaining % ≤ 80%) | B (80%< substrate protein remaining %≤ 100%) | A (0% ≤ substrate protein remaining % ≤ 80%) | A (0% ≤ substrate protein remaining % ≤ 80%) | B (80%< substrate protein remaining %≤ 100%)
9 | O=C1CCC(N2C(=O)c3ccc(CN4CCCN(c5cccc(Cl)c5Cl)CC4)cc3C2=O)C(=O)N1 (stereo not drawn) [GT-06695, 5-((4-(2,3-dichlorophenyl)-1,4-diazepan-1-yl)methyl)-2-(2,6-dioxopiperidin-3-yl)isoindoline-1,3-dione] | B (80%< substrate protein remaining %≤ 100%) | A (0% ≤ substrate protein remaining % ≤ 80%) | B (80%< substrate protein remaining %≤ 100%) | A (0% ≤ substrate protein remaining % ≤ 80%) | B (80%< substrate protein remaining %≤ 100%) | B (80%< substrate protein remaining %≤ 100%)
10 | O=C1CCC(N2C(=O)c3ccc(CN4CCC(n5c(=O)[nH]c6cc(F)ccc65)CC4)cc3C2=O)C(=O)N1 (stereo not drawn) [GT-06704, 2-(2,6-dioxopiperidin-3-yl)-5-((4-(5-fluoro-2-oxo-2,3-dihydro-1H-benzo[d]imidazol-1-yl)piperidin-1-yl)methyl)isoindoline-1,3-dione] | B (80%< substrate protein remaining %≤ 100%) | A (0% ≤ substrate protein remaining % ≤ 80%) | A (0% ≤ substrate protein remaining % ≤ 80%) | B (80%< substrate protein remaining %≤ 100%) | B (80%< substrate protein remaining %≤ 100%) | B (80%< substrate protein remaining %≤ 100%)
11 | O=C1CCC(N2C(=O)c3ccc(CN4CCN(c5c[nH]c6ncccc56)CC4)cc3C2=O)C(=O)N1 (stereo not drawn) [GT-06707, 5-((4-(1H-pyrrolo[2,3-b]pyridin-3-yl)piperazin-1-yl)methyl)-2-(2,6-dioxopiperidin-3-yl)isoindoline-1,3-dione] | A (0% ≤ substrate protein remaining % ≤ 80%) | A (0% ≤ substrate protein remaining % ≤ 80%) | A (0% ≤ substrate protein remaining % ≤ 80%) | B (80%< substrate protein remaining %≤ 100%) | A (0% ≤ substrate protein remaining % ≤ 80%) | B (80%< substrate protein remaining %≤ 100%)
